Data reported in patent US8969552B2, “Arylsulfonylmethyl or arylsulfonamide substituted aromatic compounds suitable for treating disorders that respond to modulation of the dopamine D3 receptor” (AbbVie Deutschland GmbH & Co. KG, priority 2004, dated 2015).

Legend:
[1] = biological target: T1, human dopamine D3 receptors (Homo sapiens, UniProt P35462); test: Dopamine D3 receptor binding, [125I]-iodosulpride displacement; settings: for Ki: membranes of HEK-293 cells stably expressing human D3 receptor, 0.1 nM [125I]-iodosulpride, 25° C., 60 minutes; for Ki(D2)*/Ki(D3)*: selectivity ratio of receptor binding constants D2 versus D3
T1 construct: expressed in transfected cells; membranes
Experimental: (§1) The substance to be tested was either dissolved in methanol/Chremophor® (BASF-AG) or in dimethyl sulfoxide and then diluted with water to the desired concentration.
(§2) Each assay mixture was run in triplicate.
The incubation buffer contained 50 mM tris, 120 mM NaCl, 5 mM KCl, 2 mM CaCl2, 2 mM MgCl2 and 0.1% bovine serum albumin, 10 μM quinolone and 0.1% ascorbic acid (prepared fresh daily). The buffer was adjusted to pH 7.4 with HCl.
(§3) Measurement and Analysis:
(§4) After having been incubated at 25° C. for 60 minutes, the assay mixtures were filtered through a Whatman GF/B glass fiber filter under vacuum using a cell collecting device. The filters were transferred to scintillation viols using a filter transfer system. After 4 ml of Ultima Gold® (Packard) have been added, the samples were shaken for one hour and the radioactivity was then counted in a Beta-Counter (Packard, Tricarb 2000 or 2200CA). The cpm values were converted into dpm using a standard quench series and the program belonging to the instrument.
(§5) The inhibition curves were analyzed by means of iterative nonlinear regression analysis using the Statistical Analysis System (SAS) which is similar to the “LIGAND” program described by Munson and Rodbard.
(§6) The results of the receptro binding studies are expressed as receptor binding constants Ki(D2) and Ki(D3), respectively, as herein before described, and given in table 2.

[2] = biological target: T2, human dopamine D2L receptors (long isoform) (Homo sapiens, UniProt P14416); test: Dopamine D2L receptor binding, [125I] iodospiperone displacement; settings: membranes of HEK-293 cells stably expressing human D2L receptor; 0.01 nM [125I] iodospiperone; 25° C., 60 minutes; read-out: Ki(D2)*
T2 construct: expressed in transfected cells; membranes
Experimental: as §1, §2
The incubation buffer contained 50 mM tris, 120 mM NaCl, 5 mM KCl, 2 mM CaCl2, 2 mM MgCl2 and 0.1% bovine serum albumin. The buffer was adjusted to pH 7.4 with HCl.
as §3, §4, §5, §6

T1 sequence (P35462 whole entry): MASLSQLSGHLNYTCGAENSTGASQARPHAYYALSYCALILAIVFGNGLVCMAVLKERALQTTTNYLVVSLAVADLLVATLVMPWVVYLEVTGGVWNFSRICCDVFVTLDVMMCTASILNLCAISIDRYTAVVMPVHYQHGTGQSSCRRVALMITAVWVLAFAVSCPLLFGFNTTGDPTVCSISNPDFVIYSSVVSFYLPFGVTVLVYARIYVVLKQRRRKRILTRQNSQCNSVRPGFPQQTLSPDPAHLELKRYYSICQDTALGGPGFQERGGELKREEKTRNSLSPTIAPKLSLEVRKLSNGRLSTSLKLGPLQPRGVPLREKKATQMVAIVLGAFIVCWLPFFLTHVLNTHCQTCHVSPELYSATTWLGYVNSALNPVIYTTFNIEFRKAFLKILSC
T2 sequence (P14416 whole entry, canonical isoform): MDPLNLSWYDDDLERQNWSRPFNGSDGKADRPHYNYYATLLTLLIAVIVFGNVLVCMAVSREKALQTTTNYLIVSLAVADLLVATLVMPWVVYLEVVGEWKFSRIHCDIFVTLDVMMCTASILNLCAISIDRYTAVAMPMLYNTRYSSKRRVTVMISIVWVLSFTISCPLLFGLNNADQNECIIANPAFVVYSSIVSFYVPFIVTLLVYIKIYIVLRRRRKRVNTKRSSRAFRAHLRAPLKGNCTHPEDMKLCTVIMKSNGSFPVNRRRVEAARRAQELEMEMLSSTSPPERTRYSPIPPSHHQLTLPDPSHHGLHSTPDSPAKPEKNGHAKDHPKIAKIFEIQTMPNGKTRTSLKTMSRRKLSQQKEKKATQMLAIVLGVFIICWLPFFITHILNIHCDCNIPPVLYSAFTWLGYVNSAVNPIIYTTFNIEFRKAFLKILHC

| SMILES | Ki [1] [nM] | Ki(D2)*/Ki(D3)* [1] | Ki [2] [nM] |
| --- | --- | --- | --- |
| CCCNC1CCc2cc(NS(=O)(=O)c3ccc(C(C)C)cc3)cnc2C1 (stereo not drawn) [Example 15, 4-Isopropyl-N-(7-propylamino-5,6,7,8-tetrahydro-quinolin-3-yl)-benzenesulfonamide] | 11.3 | 42 | 476 |
| C=CCN1CCC[C@H]2c3ccc(NS(=O)(=O)c4ccc(C(C)C)cc4)cc3CC[C@@H]21 [Example 19, N-((4aS,10bS)-4-Allyl-1,2,3,4,4a,5,6,10b-octahydro-benzo[f]quinolin-8-yl)-4-isopropylbenzenesulfonamide] | 2.5 | 21 | 51 |
| C=CCN1CCC[C@H]2c3cc(NS(=O)(=O)c4ccc(C(C)C)cc4)ccc3CC[C@@H]21 [Example 20, N-((4aS,10bS)-4-Allyl-1,2,3,4,4a,5,6,10b-octahydro-benzo[f]quinolin-9-yl)-4-isopropylbenzenesulfonamide] | 7.5 | 45 | 339 |
| CCCN(CCC)[C@@H]1CCc2cc(NS(=O)(=O)c3ccc(C(C)C)cc3)ccc2C1.Cl [Example 29, N—((R)-6-Dipropylamino-5,6,7,8-tetrahydro-naphthalen-2-yl)-4-isopropyl-benzenesulfonamide, hydrochloride] | 0.37 | 4 | 1.39 |
| CCCN(CCC)[C@H]1CCc2cc(NS(=O)(=O)c3ccc(C(C)C)cc3)ccc2C1.Cl [Example 30, N—((S)-6-Dipropylamino-5,6,7,8-tetrahydro-naphthalen-2-yl)-4-isopropylbenzenesulfonamide, hydrochloride] | 0.39 | 29 | 11.3 |
| CCCNC1COc2cc(NS(=O)(=O)c3ccc(C(C)C)cc3)cnc2C1 (stereo not drawn) [Example 35, 4-Isopropyl-N-(3-propylamino-3,4-dihydro-2H-pyrano[3,2-b]pyridin-7-yl)benzenesulfonamide] | 30.4 | 406 | 12300 |
| CCCN[C@H]1CCc2cc(NS(=O)(=O)c3ccc(-c4cnco4)s3)ccc2C1 [Example 38, 5-Oxazol-5-yl-thiophene-2-sulfonic acid ((S)-6-propylamino-5,6,7,8-tetrahydro-naphthalen-2-yl)-amide] | 4.81 | 151 | 727 |
| CCCN[C@H]1CCc2cc(NS(=O)(=O)c3ccc([C@@H](C)C(F)(F)F)cc3)ccc2C1 [Example 41, N—((S)-6-Propylamino-5,6,7,8-tetrahydro-naphthalen-2-yl)-4-((R)-2,2,2-trifluoro-1-methylethyl)-benzenesulfonamide] | 12.2 | 101 | 1230 |
| CCCN[C@H]1CCc2cc(NS(=O)(=O)c3ccc([C@H](C)C(F)(F)F)cc3)ccc2C1 [Example 42, N—((S)-6-Propylamino-5,6,7,8-tetrahydro-naphthalen-2-yl)-4-((S)-2,2,2-trifluoro-1-methylethyl)-benzenesulfonamide] | 1.95 | 263 | 514 |
| CCCN[C@H]1CCc2cc(NS(=O)(=O)c3ccc(-c4ccon4)s3)ccc2C1 [Example 43, 5-Isoxazol-3-yl-thiophene-2-sulfonic acid ((S)-6-propylamino-5,6,7,8-tetrahydro-naphthalen-2-yl)-amide] | 30.7 | 113 | 3480 |
| CCCN[C@H]1CCc2cc(NS(=O)(=O)c3ccc(N4CC[C@@H](F)C4)cc3)ccc2C1 [Example 44, 4-((R)-3-Fluoro-pyrrolidin-1-yl)-N—((S)-6-propylamino-5,6,7,8-tetrahydro-naphthalen-2-yl)benzenesulfonamide] | 0.62 | 416 | 258 |
| CCCN[C@H]1CCc2cc(NS(=O)(=O)c3ccc(N4CCOCC4)cc3)ccc2C1 [Example 45, 4-Morpholin-4-yl-N—((S)-6-propylamino-5,6,7,8-tetrahydro-naphthalen-2-yl)benzenesulfonamide] | 13.9 | 94 | 1310 |
| CCCN[C@H]1CCc2cc(NS(=O)(=O)c3ccc(-n4cccn4)cc3)ccc2C1.Cl [Example 76, N—((S)-6-Propylamino-5,6,7,8-tetrahydro-naphthalen-2-yl)-4-pyrazol-1-ylbenzenesulfonamide, hydrochloride] | 8.62 | 84 | 728 |
| CCCN[C@H]1CCc2cc(NS(=O)(=O)c3ccc(C(C)C(F)F)cc3)ccc2C1.Cl (stereo partly drawn) [Example 77, 4-(2,2-Difluoro-1-methyl-ethyl)-N—((S)-6-propylamino-5,6,7,8-tetrahydro-naphthalen-2-yl)benzenesulfonamide, hydrochloride] | 1.65 | 304 | 501 |
